Experimental data: BindingDB's records for doi:10.1021/jm0208119 (Westfälische Wilhelms-Universität Münster, 2002)

Molecular target: histone deacetylase HD-1, RPD3 homologue (Zea mays)
Experiment: Inhibition of in vitro enzyme activity measured in a highly purified maize Histone deacetylase 1 preparation

O=C(CCCCCCC(=O)N[C@@H](Cc1ccccc1)C(=O)NCCc1ccccc1)NO [Octanedioic acid hydroxyamide ((S)-1-phenethylcarbamoyl-2-phenyl-ethyl)-amide]
IC50: 25 nM

O=C(CCCCCCC(=O)N[C@@H](Cc1ccccc1)C(=O)NCc1ccccc1)NO [Octanedioic acid ((S)-1-benzylcarbamoyl-2-phenyl-ethyl)-amide hydroxyamide]
IC50: 40 nM
